Converted amounts (≈) assume the structure as drawn. Where a name gives a salt, the structure may show the parent alone.

In general, melting point refers to the temperature of the solid-liquid transition. In general, MIC refers to the smallest concentration in the dilution series that meets the test's criterion for growth inhibition. High values mean weaker potency, low ones greater potency.

In data set [1] the test system is Chlamydia pneumoniae ATCC VR-1360. In words: MIC, inclusion formation in infected HeLa 229 cells. Type of data set: cell-based. Conditions: ATCCVR1360, 72 hours, lowest concentration with no inclusion. The procedure: (§1) The following in vitro results were obtained based on an agar dilution method except for C. pneumoniae. The activity is presented as the minimum inhibitory concentration (MIC).
C. pneumoniae was tested using minimum essential medium supplemented with 10% heat-inactivated fetal bovine serum, 2 mM L-glutamine, […] cycloheximide and non essential amino acid. HeLa 229 cells were inoculated with 10^4 inclusion-forming units of C. pneumoniae strain per mL. Infected cells were incubated with test compounds in complete medium at 35C in an atmosphere of 5% CO2 for 72 hours. […] The MIC was defined as the lowest concentration at which no inclusion was observed.

Data set [2] has as its system Staphylococcus aureus CR (chloramphenicol resistant). In words: MIC, agar dilution method. Type of data set: cell-based. The note with it: Mueller-Hinton agar, 35 C, 24 hours. The procedure: as §1
(§2) S. aureus and M. catarrhalis were tested on Mueller-Hinton agar, using an approximate inoculum of 1×10^4 cfu/spot an incubation temperature of 35 C. for 24 hours. The MIC was defined as the lowest concentration at which no visible bacterial growth was observed.

The subject of data set [3] is Staphylococcus aureus MR (methicillin resistant). In words: MIC, agar dilution method. Type of data set: cell-based. The note with it: Mueller-Hinton agar, 35 C, 24 hours. The procedure: as §1, §2
In data set [4] the test system is Staphylococcus aureus Smith. Description: MIC, agar dilution method. Type of data set: cell-based. Conditions: Mueller-Hinton agar, 35 C, 24 hours. The procedure: as §1, §2
In general terms: Agar dilution tests growth on a series of plates holding different concentrations.

Data set [5] concerns Streptococcus pyogenes IID692. In words: MIC, agar dilution method. Type of data set: cell-based. Conditions: Mueller-Hinton agar with 5% defibrinated horse blood, 5% CO2, 24 hours. The protocol:
as §1
(§3) Streptococci and enterococci were tested on Mueller-Hinton agar supplemented with 5% defibrinated horse blood, using an approximate inoculum of 1×10^4 cfu/spot an incubation temperature of 35° C. in an atmosphere of 5% CO2 for 24 hours. The MIC was defined as the lowest concentration at which no visible bacterial growth was observed.

The test system of data set [6] is Streptococcus pneumoniae PRQR (penicillin resistant, quinolone resistant). Description: MIC, agar dilution method. Type of data set: cell-based. Conditions: Mueller-Hinton agar with 5% defibrinated horse blood, 5% CO2, 24 hours. The procedure: as §1, §3
For data set [7], the system named is Streptococcus pneumoniae IID553. Description: MIC, agar dilution method. Type of data set: cell-based. Conditions: Mueller-Hinton agar with 5% defibrinated horse blood, 5% CO2, 24 hours. The procedure: as §1, §3
In data set [8] the test system is Enterococcus faecium VRQR (vancomycin resistant, quinolone resistant). In words: MIC, agar dilution method. Conditions: Mueller-Hinton agar with 5% defibrinated horse blood, 5% CO2, 24 hours. Type of data set: cell-based. The protocol: as §1, §3
For data set [9], the system named is Moraxella catarrhalis ATCC25238. In words: MIC, agar dilution method. Type of data set: cell-based. Conditions: Mueller-Hinton agar, 35 C, 24 hours. The procedure: as §1, §2

With `CC(=O)NC[C@H]1CN(c2ccc(C3=C[C@@H]4[C@@H](N)[C@@H]4C3)c(F)c2)C(=O)O1` (as salt: hydrochloride) [Example 50, N-[5(S)-3-[4-[(1α,5α,6α)-6-Aminobicyclo[3.1.0]hex-2-en-3-yl]-3-fluorophenyl]-2-oxooxazolidin-5-ylmethyl]acetamide Hydrochloride], the melting point is 215 to 220 °C.

`CC(=O)NC[C@H]1CN(c2ccc(N3C[C@@H]4[C@@H](N)[C@@H]4C3)c(F)c2)C(=O)O1` [Example 8, N-[5(S)-3-[4-[(1α,5α,6α)-6-Amino-3-azabicyclo[3.1.0]hexan-3-yl]-3-fluorophenyl]-2-oxooxazolidin-5-ylmethyl]acetamide]: the MIC in data set [1] turned out to be 0.5 µg/mL (≈ 1.44 µM); in data set [2], 4 µg/mL (≈ 11.5 µM); in [3], 1 µg/mL (≈ 2.87 µM); in [4], 0.5 µg/mL (≈ 1.44 µM); in data set [5], 0.5 µg/mL (≈ 1.44 µM); in [6], 1 µg/mL (≈ 2.87 µM). Also, the MIC in data set [7] was 1 µg/mL (≈ 2.87 µM); in data set [8] it was 2 µg/mL (≈ 5.74 µM).

Consider `CC(=O)NC[C@H]1CN(c2ccc(N3C[C@@H]4[C@@H](C=O)[C@@H]4C3)c(F)c2)C(=O)O1` [Example 22, N-[5(S)-3-[3-Fluoro-4-[(1α,5α,6α)-6-formyl-3-azabicyclo[3.1.0]hexan-3-yl]phenyl]-2-oxooxazolidin-5-ylmethyl]acetamide], for which the MIC in [2] is 0.5 µg/mL (≈ 1.38 µM); in data set [3], 0.016 µg/mL (≈ 0.0443 µM); in data set [9], 2 µg/mL (≈ 5.53 µM); in data set [4] it was 0.06 µg/mL (≈ 0.166 µM); in data set [5], 0.5 µg/mL (≈ 1.38 µM); in data set [6] it was 0.5 µg/mL (≈ 1.38 µM). Besides, the MIC in data set [7] and in data set [8] was 0.5 µg/mL (≈ 1.38 µM) in each case.

For `CC(=O)NC[C@H]1CN(c2ccc(N3C[C@@H]4[C@@H](/C=N/O)[C@@H]4C3)c(F)c2)C(=O)O1` [Example 41, (E)-N-[5(S)-3-[3-Fluoro-4-[(1α,5α,6α)-6-[(hydroxyimino)methyl]-3-azabicyclo[3.1.0]hexan-3-yl]phenyl]-2-oxooxazolidin-5-ylmethyl]acetamide], the MIC stood at 0.5 µg/mL (≈ 1.33 µM) in data set [2]; 0.06 µg/mL (≈ 0.159 µM) in [3]; 4 µg/mL (≈ 10.6 µM) in data set [9]; 0.06 µg/mL (≈ 0.159 µM) in [4]; 0.5 µg/mL (≈ 1.33 µM) in data set [5]; 0.5 µg/mL (≈ 1.33 µM) in data set [6]. The MIC in data set [7] and in data set [8] was 0.5 µg/mL (≈ 1.33 µM) in each case.

As for `CC(=O)NC[C@H]1CN(c2ccc(N3C[C@@H]4[C@@H](C#N)[C@@H]4C3)c(F)c2)C(=O)O1` [Example 46, N-[5(S)-3-[4-[(1α,5α,6α)-6-Cyano-3-azabicyclo[3.1.0]hexan-3-yl]-3-fluorophenyl]-2-oxooxazolidin-5-ylmethyl]acetamide], the MIC came to 1 µg/mL (≈ 2.79 µM) in [2]; 0.25 µg/mL (≈ 0.698 µM) in [3]; 2 µg/mL (≈ 5.58 µM) in data set [9]; 0.25 µg/mL (≈ 0.698 µM) in data set [4]; 0.25 µg/mL (≈ 0.698 µM) in [5]; 0.25 µg/mL (≈ 0.698 µM) in data set [6]. For the same compound, the MIC in [7] and in data set [8] was 0.5 µg/mL (≈ 1.4 µM) each time.

In the case of `CC(=O)NC[C@H]1CN(c2ccc(N3CCOCC3)c(F)c2)C(=O)O1` [Linezolid, reference compound], the MIC in data set [1] amounted to 8 µg/mL (≈ 23.7 µM); in data set [2], 16 µg/mL (≈ 47.4 µM); in [3], 1 µg/mL (≈ 2.96 µM); in [9] it was 4 µg/mL (≈ 11.9 µM); in data set [4] it was 1 µg/mL (≈ 2.96 µM); in data set [5], 1 µg/mL (≈ 2.96 µM). Further, the values for the MIC in [6], in [7] and in [8] were 1 µg/mL (≈ 2.96 µM), 2 µg/mL (≈ 5.93 µM) and 2 µg/mL (≈ 5.93 µM), respectively.

(Values after patent US6897230B2, “Bicyclo[3/1/0] hexane containing oxazolidinone antibiotics and derivatives thereof” (Kyorin Pharmaceutical Co., Ltd., priority 2001, dated 2005).)
